US20240301408A1, “MICRORNA 195 COMPOSITIONS AND METHODS FOR TREATING COGNITIVE IMPAIRMENT” (UNITED STATES GOVERNMENT AS REPRESENTED BY THE DEPARTMENT …, priority 2021, published 2024)

Columns and labels:
[1] = system: lysosomes of synj1+/+ and synj1-/- neurons; experiment: lysosome size in mouse synj1+/+ and synj1-/- neurons co-cultured with ApoE4+/+ iPSC-derived astrocytes; assay type: cell-based
Procedure: Mouse Neuronal and human iPSC culture. Primary cortical neurons were cultured (Zhu L et al., Proc Natl Acad Sci USA 2015, and Zhu L et al., J Biol Chem 2013) before being fixed and stained for confocal microscopy analysis (Zeiss LSM) (Berg I et al., Nat Protoc 2010). In some conditions, bovine serum albumin (BSA) or receptor-associated protein (RAP) was included in the cultured media (N=3/group). Alternatively, cultured neurons were transfected with adeno-associated virus 2 (AAV2)-containing miR-195-5p or miR-374 or scramble controls for 5 days before subjected to analysis. The ApoE4^+/+ and ApoE3^+/+ iPSCs were differentiated into neural progenitor cells (NPCs) by dual SMAD inhibition followed by neural rosette selection and forebrain-specific patterning by 20 ng/ml FGF2 exposure (Bowles K R et al., PloS one 2019, and Tcw J et al., Stem cell reports 2017). These NPCs were purified by MACS for CD271^−/CD133^+ (Bowles K R et al., PloS one 2019) and differentiated to cortical neurons (Bardy C et al., Proc Natl Acad Sci USA 2015, and Paquet D et al., Nature 2016) and a homogeneous population of astrocytes (Tcw J et al., Stem cell reports 2017, and Shaltouki A et al., Stem Cells 2013) before subjected to viral transfection and confocal microscopy analysis. […]

[2] = system: synj1; experiment: brain synj1 mRNA and protein levels in ApoE KI mice after miR-195 over-expression; assay type: in vivo, mouse
Procedure: (§1) Stereotaxic injection and behavior studies. Eight to nine weeks old male and female ApoE3^+/+ and ApoE4^+/+ KI mice without 5×FAD background (N=19-23/group), or with 5×FAD background (N=15-17/group) were placed in the stereotaxic apparatus with AAV2 or scramble virus administered into the dorsal CA1 regions of bilateral hippocampal brain regions using pressure injection (Labonte B et al., Nat Med 2017, and Passini M A et al., The Journal of neuroscience 2006). Injection volumes (0.5-2.0 μl) were delivered over 10 min to avoid tissue damage. Six to nine months after viral delivery, mice were tested with the NOR task (Zhu L et al., Proc Natl Acad Sci USA 2015, Elder G A et al., J Neurotrauma 2012, and Howlett D R et al., Brain Res 2004). Mice were randomized for genotype and sex, and blinded throughout the behavior data collection and analysis, surgical manipulations, and sample collection.
(§2) Brain and neuronal sample preparation and biochemical analysis. Snap-frozen mouse hemi-brains or cultured neurons were harvested in lysis buffer (Lane R F et al., The Journal of neuroscience 2010) and processed via step-wise solubilization (Lane R F et al., The Journal of neuroscience 2010, and Kawarabayashi T et al. The Journal of neuroscience 2001) followed by SDS-PAGE to determine levels of synj1, dyn1, holoAPP, and CTFs. Levels of Aβ42, Aβ40, pTau, Tau and ApoE were determined using high-sensitive ELISA kits. Some tissue was used for miRNA and RNA extraction followed by qPCR and RNA-seq analysis. […]
(§3) Statistical analysis. […] Levels of miR-195-5p and miR-374 were normalized to U6 and RNU6B (internal controls) while synj1 mRNA normalized to GAPDH and 18s, and then expressed as Log2fold of changes when compared to controls. Levels of synj1, dyn1, pTau, Tau, and holoAPP were normalized to β-actin levels and expressed as a percentage of the control. Absolute Aβ42, Aβ40, pTau, Tau, and ApoE concentrations were quantitatively determined by ELISA and expressed as a percentage of the control. […] Pearson correlation coefficients were calculated to determine the linear relationship between the two variables. […]

[3] = system: Aβ / amyloid plaque; experiment: brain oligomer Aβ42, soluble Aβ and amyloid plaque burden in EFAD mice after miR-195-5p over-expression; assay type: in vivo, mouse
Procedure: as §1, §2, §3

[4] = system: dynamin 1 (dyn1); experiment: dynamin 1 protein levels in cultured neurons after AAV2 miRNA over-expression; assay type: cell-based, mouse; settings: neurons over-expressing miRNA; N=4/group
Procedure: Mouse Neuronal and human iPSC culture. Primary cortical neurons were cultured (Zhu L et al., Proc Natl Acad Sci USA 2015, and Zhu L et al., J Biol Chem 2013) before being fixed and stained for confocal microscopy analysis (Zeiss LSM) (Berg I et al., Nat Protoc 2010). In some conditions, bovine serum albumin (BSA) or receptor-associated protein (RAP) was included in the cultured media (N=3/group). Alternatively, cultured neurons were transfected with adeno-associated virus 2 (AAV2)-containing miR-195-5p or miR-374 or scramble controls for 5 days before subjected to analysis. […]
Brain and neuronal sample preparation and biochemical analysis. […] Levels of Aβ42, Aβ40, pTau, Tau and ApoE were determined using high-sensitive ELISA kits. […]
as §3

[5] = ApoE4+/+ and ApoE3+/+ FAD mouse brains

For “UAGCAGCACAGAAAUAUUGGC (chemistry not given here) [miR-195-5p, over-expressed via AAV2-containing miR-195-5p from ABM Inc]”, the size of lysosomes ([1]; synj1+/+ neurons, control 101.5 μm^2) was 75.8 μm^2, the size of lysosomes ([1]; synj1-/- neurons, control 77.0 μm^2) was 69.7 μm^2 and the “synj1 mRNA and protein levels” value ([2]; ApoE3+/+ mouse brains) was “Trends of reduction”. The “synj1 mRNA” value ([2]; ApoE4+/+ mouse brains, scramble controls 0.52) was −1.29 Log 2FC, the synj1 protein ([2]; ApoE4+/+ mouse brains, scramble controls 77.7) was 56.4 % of control and the “amyloid plaque burden (plaque numbers and plaque density)” value [3, 5] was “dramatic reduction”. The “brain oligomer Aβ42 measured by ELISA” value [3, 5] was “dramatic reduction”, the “soluble Aβ40, Aβ42 levels” value ([3]; E4FAD and E3FAD mouse brains) was “no significant changes” and the dyn protein levels [4] was 97.7 % of controls.
